# Target: T1, VR1 (Rattus norvegicus, UniProt O35433)
# Assay: Calcium imaging assay: inhibition of capsaicin induced calcium influx in DRG neurons (Fura2, microscope)
# Assay type: cell-based
# Design: endogenous in cells; host or cells: DRG neurons
# Conditions: DRG neuron; concentration 300 nM; treatment time 20 sec; capsaicin 250 nM; DRG neurons
# Experimental: VR1 protein is a heat-gated cation channel that […] resulting in neuronal membrane depolarization and elevated intracellular calcium levels. Therefore the functional activity of compounds at the VR1 receptor may be determined by measuring changes in intracellular calcium levels in neurons such as the dorsal root ganglion.
# DRG neurons were grown on PDL coated 96-well black-walled plates, in the presence of DMEM medium containing 5% Penstrep, 5% Glutamax, 200 μg/ml hygromycin, 5 μg/ml blasticide and 10% heat inactivated FBS. Prior to assay, cells were loaded with 5 μg/ml Fura2 in normal saline solution at 37° C for 40 minutes. Cells were then washed with normal saline to remove dye before commencement of the experiment.
# The plated neurons were transferred into a chamber on the stage of a Nikon eclipse TE300 microscope after which neurons were allowed to attain a stable fluorescence for about 10 minutes before beginning the experiment. The assay consists of two stages, a pretreatment phase followed by a treatment phase. First, a solution of the test compound was added from a multivalve perfusion system to the cells for 1 minute (pretreatment). Immediately following, capsaicin (250 nM) was added in the presence of the test compound (treatment) for a specific period between 20 and 60 seconds.
# Fura2 was excited at […] to indicate relative calcium ion concentration. Changes in wavelength measurements were made throughout the course of the experiment. The fluorescence ratio was calculated by dividing fluorescence measured at 340 nm by that at 380 nM. Data was collected using Intelligent Imaging’s Slidebook software. All compounds that inhibited capsaicin induced calcium influx greater than 75% were considered positives.
# Fluorescence reflecting calcium ion influx is reduced.
# T1 sequence (O35433 whole entry): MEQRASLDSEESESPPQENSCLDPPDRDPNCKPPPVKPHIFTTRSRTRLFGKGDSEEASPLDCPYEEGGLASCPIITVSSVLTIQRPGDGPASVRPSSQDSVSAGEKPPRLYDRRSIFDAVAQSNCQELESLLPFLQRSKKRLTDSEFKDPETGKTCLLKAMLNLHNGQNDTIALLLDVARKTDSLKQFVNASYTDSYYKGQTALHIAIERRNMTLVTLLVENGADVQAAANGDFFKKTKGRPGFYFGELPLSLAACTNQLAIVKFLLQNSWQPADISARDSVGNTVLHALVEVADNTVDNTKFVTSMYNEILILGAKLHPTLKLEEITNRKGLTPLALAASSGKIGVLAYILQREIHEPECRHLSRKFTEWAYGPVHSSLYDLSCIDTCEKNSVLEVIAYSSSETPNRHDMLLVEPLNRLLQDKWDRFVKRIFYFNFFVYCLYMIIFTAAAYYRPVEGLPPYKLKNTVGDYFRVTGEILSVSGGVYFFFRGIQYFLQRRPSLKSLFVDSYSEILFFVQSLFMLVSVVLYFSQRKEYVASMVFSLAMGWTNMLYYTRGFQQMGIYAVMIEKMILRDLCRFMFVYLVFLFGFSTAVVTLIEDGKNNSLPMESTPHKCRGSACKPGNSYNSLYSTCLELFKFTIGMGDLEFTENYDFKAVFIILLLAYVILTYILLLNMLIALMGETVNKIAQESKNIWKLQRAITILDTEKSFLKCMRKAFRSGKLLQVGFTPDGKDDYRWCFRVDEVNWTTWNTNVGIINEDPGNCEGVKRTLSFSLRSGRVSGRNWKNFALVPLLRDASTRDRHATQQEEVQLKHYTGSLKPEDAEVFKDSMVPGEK
row,SMILES,inhibition at 0.3 µM [%]
1,COc1cc(NC(=O)c2ccc(/C=C/C(C)C)cc2)cc(C(F)(F)F)c1 [Compound 155],< 75

# Same assay, conditions: administered with capsaicin
row,SMILES,fluorescence reflecting calcium ion influx when administered with capsaicin (Figure 1)
1,COc1cc(NC(=O)c2ccc(/C=C/C(C)C)cc2)cc(C(F)(F)F)c1 [Compound 155],reduced

# Same assay, conditions: capsaicin stimulation; class symbols per legend
row,SMILES,inhibition of calcium ion influx induced by capsaicin stimulation
1,COc1ccc(NC(=O)c2ccc(/C=C/C(F)(F)F)cc2)cc1Cl [Compound 391],+ (compound exhibited 0-25% inhibition of calcium ion influx induced by capsaicin stimulation)
2,O=C(Nc1ccc(C(F)(F)F)cc1)c1ccc(/C=C/C(F)(F)F)cc1 [Compound 392],+ (compound exhibited 0-25% inhibition of calcium ion influx induced by capsaicin stimulation)
3,CC(C)c1ccc(NC(=O)c2ccc(/C=C/C(F)(F)F)cc2)cc1 [Compound 394],++ (compound exhibited 25-50% inhibition of calcium ion influx induced by capsaicin stimulation)
4,CCCCc1ccc(NC(=O)c2ccc(/C=C/C(F)(F)F)cc2)cc1 [Compound 395],+ (compound exhibited 0-25% inhibition of calcium ion influx induced by capsaicin stimulation)
5,O=C(Nc1ccc2c(c1)OCCO2)c1ccc(/C=C/C(F)(F)F)cc1 [Compound 397],+++ (compound exhibited 50-75% inhibition of calcium ion influx induced by capsaicin stimulation)
6,O=C(Nc1cccc(C(F)(F)F)c1)c1ccc(/C=C/C(F)(F)F)cc1 [Compound 398],++++ (compound exhibited 75% or greater inhibition of calcium ion influx induced by capsaicin stimulation)
7,O=C(Nc1ccc(OC(F)(F)F)cc1)c1ccc(/C=C/C(F)(F)F)cc1 [Compound 399],++++ (compound exhibited 75% or greater inhibition of calcium ion influx induced by capsaicin stimulation)
8,COc1ccc(NC(=O)c2ccc(/C=C/C(F)(F)F)cc2)cn1 [Compound 406],++ (compound exhibited 25-50% inhibition of calcium ion influx induced by capsaicin stimulation)
9,CC(C)(C)C#Cc1ccc(C(=O)Nc2cccc(S(C)(=O)=O)c2)cn1 [Compound 411],++++ (compound exhibited 75% or greater inhibition of calcium ion influx induced by capsaicin stimulation)
10,CC(C)(C)C#Cc1ccc(C(=O)Nc2cccc(S(C)(=O)=O)c2)cc1 [Compound 412],++++ (compound exhibited 75% or greater inhibition of calcium ion influx induced by capsaicin stimulation)
11,CCN(CC)CCOC(=O)c1ccc(NC(=O)c2ccc(C#CC(C)(C)C)nc2)cc1 [Compound 413],+ (compound exhibited 0-25% inhibition of calcium ion influx induced by capsaicin stimulation)
12,COc1cccc(NC(=O)c2ccc(C#CC(C)(C)C)nc2)c1 [Compound 414],++++ (compound exhibited 75% or greater inhibition of calcium ion influx induced by capsaicin stimulation)
13,COc1ccc(NC(=O)c2ccc(C#CC(C)(C)C)nc2)cc1Cl [Compound 416],++ (compound exhibited 25-50% inhibition of calcium ion influx induced by capsaicin stimulation)
14,CC(C)(C)C#Cc1ccc(C(=O)Nc2ccc(C(F)(F)F)cc2)cn1 [Compound 417],++++ (compound exhibited 75% or greater inhibition of calcium ion influx induced by capsaicin stimulation)
15,CC(C)(C)C#Cc1ccc(C(=O)Nc2ccc(Cl)c(C(F)(F)F)c2)cn1 [Compound 418],++++ (compound exhibited 75% or greater inhibition of calcium ion influx induced by capsaicin stimulation)
16,CC(C)(C)C#Cc1ccc(C(=O)Nc2ccc(C(C)(C)C)cc2)cn1 [Compound 419],++++ (compound exhibited 75% or greater inhibition of calcium ion influx induced by capsaicin stimulation)

row,SMILES,inhibition of calcium ion influx induced by capsaicin stimulation
1,CC(C)c1ccc(NC(=O)c2ccc(C#CC(C)(C)C)nc2)cc1 [Compound 420],+++ (compound exhibited 50-75% inhibition of calcium ion influx induced by capsaicin stimulation)
2,CCCCc1ccc(NC(=O)c2ccc(C#CC(C)(C)C)nc2)cc1 [Compound 421],++ (compound exhibited 25-50% inhibition of calcium ion influx induced by capsaicin stimulation)
3,COc1cc(NC(=O)c2ccc(C#CC(C)(C)C)nc2)cc(C(F)(F)F)c1 [Compound 422],++++ (compound exhibited 75% or greater inhibition of calcium ion influx induced by capsaicin stimulation)
4,CC(C)(C)C#Cc1ccc(C(=O)Nc2ccc3c(c2)OCCO3)cn1 [Compound 423],++++ (compound exhibited 75% or greater inhibition of calcium ion influx induced by capsaicin stimulation)
5,CC(C)(C)C#Cc1ccc(C(=O)Nc2cccc(C(F)(F)F)c2)cn1 [Compound 424],+++ (compound exhibited 50-75% inhibition of calcium ion influx induced by capsaicin stimulation)
6,CC(C)(C)C#Cc1ccc(C(=O)Nc2ccc(OC(F)(F)F)cc2)cn1 [Compound 425],+ (compound exhibited 0-25% inhibition of calcium ion influx induced by capsaicin stimulation)
7,CC(C)(C)C#Cc1ccc(C(=O)Nc2ccc(S(C)(=O)=O)cc2)cn1 [Compound 427],++ (compound exhibited 25-50% inhibition of calcium ion influx induced by capsaicin stimulation)
8,CC(C)(C)C#Cc1ccc(C(=O)Nc2cccc3cnccc23)cn1 [Compound 428],++++ (compound exhibited 75% or greater inhibition of calcium ion influx induced by capsaicin stimulation)
9,CC(C)(C)C#Cc1ccc(C(=O)Nc2cnc3ccccc3c2)cn1 [Compound 429],++++ (compound exhibited 75% or greater inhibition of calcium ion influx induced by capsaicin stimulation)
10,CCN(CC)c1ccc(NC(=O)c2ccc(C#CC(C)(C)C)nc2)cc1 [Compound 430],+ (compound exhibited 0-25% inhibition of calcium ion influx induced by capsaicin stimulation)
11,Cc1ccc(NC(=O)c2ccc(C#CC(C)(C)C)nc2)nc1 [Compound 432],+ (compound exhibited 0-25% inhibition of calcium ion influx induced by capsaicin stimulation)
12,CC(C)(C)C#Cc1ccc(C(=O)Nc2ccc(C(F)(F)F)cn2)cn1 [Compound 433],++ (compound exhibited 25-50% inhibition of calcium ion influx induced by capsaicin stimulation)
13,CC(C)(C)C#Cc1ccc(C(=O)Nc2ccc(Cl)nc2)cn1 [Compound 434],+ (compound exhibited 0-25% inhibition of calcium ion influx induced by capsaicin stimulation)
14,COc1ccc(NC(=O)c2ccc(C#CC(C)(C)C)nc2)cn1 [Compound 435],+ (compound exhibited 0-25% inhibition of calcium ion influx induced by capsaicin stimulation)
15,Cn1ccc2cc(NC(=O)c3ccc(C#CC(C)(C)C)nc3)ccc21 [Compound 437],++++ (compound exhibited 75% or greater inhibition of calcium ion influx induced by capsaicin stimulation)
16,CC(C)(C)C#Cc1ccc(C(=O)Nc2ccc3c(c2)OCO3)cn1 [Compound 438],++++ (compound exhibited 75% or greater inhibition of calcium ion influx induced by capsaicin stimulation)

# Target: T1, VR1
# Assay: Whole-cell patch clamp electrophysiology: inhibition of capsaicin induced current in DRG neurons
# Assay type: cell-based, rats
# Design: Dorsal root ganglion (DRG) neurons were recovered from either neonatal or adult rats; endogenous in cells; host or cells: primary rat dorsal root ganglion neurons
# Conditions: DRG neuron; concentration 100 nM; treatment time 20 seconds; 500nM capsaicin; held at -80mV; DRG neurons
# From the text: Whole-cell patch clamp electrophysiology
# Dorsal root ganglion (DRG) neurons were recovered from either neonatal or adult rats and plated onto poly-D-lysine coated glass coverslips. The plated neurons were transferred into a chamber to allow drug solutions to be added to the cells using a computer-controlled solenoid-valve based perfusion system. The cells were imaged using standard DIC optics. Cells were patched using finely-pulled glass electrodes. Voltage-clamp electrophysiology experiments were carried out using an Axon Instruments Multiclamp amplified controlled by pCLAMP8 software.
# The cells were placed into a whole-cell voltage clamp and held at a voltage of –80mV while monitoring the membrane current in gap-free recording mode.
# 500nM capsaicin was added for 30 seconds as a control. Test compounds at various concentrations were added to the cells for 1 minute prior to a 30 second capsaicin application. Differences between control experiments and drug positive capsaicin experiments were used to determine the efficacy of each test compound. All compounds that inhibited capsaicin induced current greater than 50% were considered positives.
row,SMILES,inhibition at 0.1 µM [%]
1,COc1cc(NC(=O)c2ccc(/C=C/C(C)C)cc2)cc(C(F)(F)F)c1 [Compound 155],50

# Same assay, conditions: same neurons, capsaicin alone as comparison
row,SMILES,"calcium influx in neurons, capsaicin in presence of compound vs capsaicin alone (Figure 2)"
1,COc1cc(NC(=O)c2ccc(/C=C/C(C)C)cc2)cc(C(F)(F)F)c1 [Compound 155],less calcium influx
